The results in this text go back to patent US7569724B2, “Carbamic acid compounds comprising an amide linkage as HDAC inhibitors” (Topotarget UK Limited, priority 2000, dated 2009).

pIC50: −log10 of the molar value. Like-named read-outs stand apart in the source and are kept apart here.

For one data set, the system named is HeLa cells. Put plainly: Secondary assay: cell proliferation WST-1, HeLa. The class given is cell-based. The note with it: Homo sapiens, 48 h, read-out: Cell Proliferation Inhibition WST-1 (IC50 unless otherwise specified) HeLa. As for the experimental part:
Compounds with HDAC inhibition activity, as determined using the primary assay, were subsequently evaluated using secondary cell-based assays. The following cell lines were used:
HeLa—Human cervical adenocarcinoma cell line (ATCC ref. No. CCL-2).
Cells were plated in 96-well plates at 3-10×10^3 cells/well in 100 μL of culture medium. The following day, different concentrations of candidate compounds were added and the cells incubated at 37° C. for 48 h. Subsequently, 10 μL/well of WST-1 reagent was added and the cells reincubated for 1 hour. After the incubation time, absorbance was measured.
WST-1 is a tetrazolium salt which is cleaved to formazan dye by cellular enzymes. An expansion in the number of viable cells results in an increase in the overall activity of mitochondrial dehydrogenases in the sample. This augmentation in the enzyme activity leads to an increase in the amount of formazan dye formed, which directly correlates to the number of metabolically active cells in the culture. The formazan dye produced is quantified by a scanning multiwell spectrophotometer by measuring the absorbance of the dye solution at 450 nm wavelength (reference wavelength 690 nm).
Percent activity (% activity) in reducing the number of viable cells was calculated for each test compound as: % activity={(S^C−B)/(S^o−B)}×100 wherein S^C denotes signal measured in the presence of the compound being tested, S^o denotes signal measured in the absence of the compound being tested, and B denotes the background signal measured in blank wells containing medium only.
IC50 values were calculated using the software package Prism 3.0 (GraphPad software Inc., San Diego, Calif.), setting top value at 100 and bottom value at 0.
Background: Tetrazolium dyes change colour on reduction, which living cells bring about.

Another data set deals with HDAC (HeLa cell extract). In words: Primary assay: deacetylase activity, HeLa cell extract as source of HDAC. The class given is biochemical, human. The note with it: HeLa cell extract. The text has this: Briefly, this assay relies on the release of radioactive acetate from a radioactively labelled histone fragment by the action of HDAC enzyme. Test compounds, which inhibit HDAC, reduce the yield of radioactive acetate. Signal (e.g., scintillation counts) measured in the presence and absence of a test compound provide an indication of that compound's ability to inhibit HDAC activity. Decreased activity indicates increased inhibition by the test compound.
The histone fragment was an N-terminal sequence from histone H4, and it was labelled with radioactively labelled acetyl groups using tritiated acetylcoenzyme A (coA) in conjunction with an enzyme which is the histone acetyltransferase domain of the transcriptional coactivator p300. […] The acetylated peptide was then separated from free acetyl coA by size exclusion chromatography on Sephadex G-15 (Sigma G-15-120), using distilled H2O as the mobile phase.
After purification of the radiolabelled histone fragment, it was incubated with a source of HDAC (e.g., an extract of HeLa cells (a rich source of HDAC), recombinantly produced HDAC1 or HDAC2) and any released acetate was extracted into an organic phase and quantitatively determined using scintillation counting. By including a test compound with the source of HDAC, that compound's ability to inhibit the HDAC was determined.
The HeLa cell extract was made from HeLa cells (ATCC Ref. No. CCL-2) by freeze-thawing three times in 60 mM TrisCl pH 8.0, 450 mM NaCl, 30% glycerol. Two cell volumes of extraction buffer were used, and particulate material was centrifuged out (20800 g, 4° C., 10 min). The supernatant extract having deacetylase activity was aliquotted and frozen for storage.
A source of HDAC (e.g., 2 μL of crude HeLa extract, 5 μL of HDAC1 or HDAC2; in elution buffer, as above) was incubated with 3 μL of radioactively labelled peptide along with appropriate dilutions of candidate compounds (1.5 μL) in a total volume of 150 μL of buffer (20 mM Tris pH 7.4, 10% glycerol). The reaction was carried out at 37° C. for one hour, after which the reaction was stopped by adding 20 μL of 1 M HCl/0.4 M sodium acetate. […] Radioactivity was measured using a Tri-Carb 2100TR Liquid Scintillation Analyzer (Packard).
Percent activity (% activity) for each test compound was calculated as: % activity={(S^C−B)/(S^o−B)}×100 wherein S^C denotes signal measured in the presence of enzyme and the compound being tested, S^o denotes signal measured in the presence of enzyme but in the absence of the compound being tested, and B denotes the background signal measured in the absence of both enzyme and compound being tested.

The mark [1] stands for this setting: read-out: HDAC Inhibition (IC50 unless otherwise specified) HeLa.
[2] abbreviates: comparative tables, read-out: HeLa IC50.

Turning to `CN(C)c1ccc(C(=O)NCCCCC(=O)NO)c2ccccc12` [PX082534, 4-Dimethylamino-napthalene-1-carboxylic acid (4-hydroxycarbamoyl-butyl)-amide], the melting point (usually the temperature, or range, at which the solid turns liquid) was found to be 129 °C. For the same molecule, in the data set on HeLa cells, the pIC50 was 4.62. Further, the pIC50 with HDAC (HeLa cell extract) (setting [1]) is 5.82. Further, the pIC50 in the data set on HDAC (HeLa cell extract) (setting [2]) is 5.82.

For `O=C(CCCCCNC(=O)c1ccco1)NO` [PX105826, Furan-2-carboxylic acid (5-hydroxycarbamoyl-pentyl)-amide], the melting point was in the range of 113.5 to 115 °C. Moreover, in the data set with HeLa cells, the pIC50 is 4.74. Besides, in the data set on HDAC (HeLa cell extract) (setting [1]), the pIC50 is 6.40. Moreover, the pIC50 with HDAC (HeLa cell extract) (setting [2]) was 6.40.

Molecule `O=C(CCCCCNC(=O)c1cccc2ccccc12)NO` [PX105828, Naphthalene-1-carboxylic acid (5-hydroxycarbamoyl-pentyl)-amide] yielded a melting point of 118 to 119 °C. For the same molecule, the pIC50 in the data set with HeLa cells was 4.77. Moreover, the pIC50 in the data set with HDAC (HeLa cell extract) (setting [1]) was 6.48. For the same molecule, the pIC50 in the data set on HDAC (HeLa cell extract) (setting [2]) is 6.48.

`O=C(/C=C/C=C/c1ccccc1[N+](=O)[O-])NCCCCCC(=O)NO` [PX105830, (2E,4E)-5-(2-Nitrophenyl)penta-2,4-dienoic acid (5-hydroxycarbamoyl-pentyl)amide]: the melting point is 131 to 133 °C. In addition, in the data set with HeLa cells, the pIC50 is 4.85. For the same molecule, the pIC50 with HDAC (HeLa cell extract) (setting [1]) is 7.09.

For the molecule `O=C(/C=C/C=C/c1ccc([N+](=O)[O-])cc1)NCCCCCC(=O)NO` [PX105847, (2E,4E)-5-(4-Nitrophenyl)penta-2,4-dienoic acid (5-hydroxycarbamoyl-pentyl)-amide], the melting point lay within 111 to 113 °C. In addition, the pIC50 in the data set with HeLa cells was 5.08. Also, the pIC50 in the data set on HDAC (HeLa cell extract) (setting [1]) was 7.12.

In turn, `O=C(/C=C/c1ccco1)NCCCCCC(=O)NO` [PX106491, 3-Furan-2-yl-N-(5-hydroxycarbamoyl-pentyl)-acrylamide] had a melting point of 151 to 152.5 °C. Further, the pIC50 with HeLa cells was 6.28. Also, the pIC50 with HDAC (HeLa cell extract) (setting [1]) is 7.08. Moreover, the pIC50 in the data set on HDAC (HeLa cell extract) (setting [2]) is 7.08.

Molecule `CC(C)(C)c1ccc(C(=O)NCCCCCC(=O)NO)cc1` [PX106496, 4-tert-Butyl-N-(5-hydroxycarbamoylpentyl)benzamide] displayed a melting point of 150 to 151.5 °C. Besides, the pIC50 in the data set on HeLa cells is 5.24. In the data set with HDAC (HeLa cell extract) (setting [1]), the pIC50 was 7.09.

The molecule `O=C(/C=C/C=C/c1ccccc1)NCCCCCCC(=O)NO` [PX106518] gave a melting point of 147 to 149 °C. Moreover, the pIC50 in the data set with HeLa cells was 6.19. The pIC50 in the data set with HDAC (HeLa cell extract) (setting [1]) was 7.21. Besides, the pIC50 in the data set on HDAC (HeLa cell extract) (comparative tables, no unit in cell, read-out: HeLa IC50) was 7.21.

Molecule `C/C(=C\C=C\c1ccccc1)C(=O)NCCCCCC(=O)NO` [PX106520, (2E,4E)-2-Methyl-5-phenylpenta-2,4-dienoic acid (5-hydroxycarbamoylpentyl)-amide] displayed a melting point of 158 to 160 °C. Further, the pIC50 in the data set on HeLa cells is 5.08. The pIC50 in the data set on HDAC (HeLa cell extract) (setting [1]) was 7.20.

Regarding `CN(C)c1ccc(/C=C/C=C/C(=O)NCCCCCC(=O)NO)cc1` [PX106527, (2E,4E)-5-(4-Dimethylamino-phenyl)-penta-2,4-dienoic acid (5-hydroxycarbamoyl-pentyl)-amide], the melting point lay in the range of 172 to 174 °C. Moreover, the pIC50 in the data set on HeLa cells was 6.00. For the same molecule, the pIC50 in the data set on HDAC (HeLa cell extract) (setting [1]) is 7.62. Further, the pIC50 in the data set on HDAC (HeLa cell extract) (setting [2]) is 7.62.

`O=C(CCCCCCC(=O)NCCc1c[nH]c2ccccc12)NO` [PX116216, Octanedioic acid hydroxyamide [2-(1H-indol-3-yl)-ethyl]-amide] registered a melting point of 118.5 to 120 °C. Also, in the data set on HeLa cells, the pIC50 was 5.22. In addition, the pIC50 with HDAC (HeLa cell extract) (setting [1]) is 7.00.

With `O=C(CCCCCNC(=O)c1ccc(Br)o1)NO` [PX116221, 5-Bromo-furan-2-carboxylic acid (5-hydroxycarbamoyl-pentyl)-amide], the melting point is 122 to 124 °C. Besides, the “HDAC Inhibition HeLa, percent” value with HDAC (HeLa cell extract) (@ 500 nM) is recorded as 72% @ 500 nM.

As for `O=C(CCCCCCC(=O)NCCc1cccc2ccccc12)NO` [PX116224, Octanedioic acid hydroxyamide (2-naphthalen-1-yl-ethyl)-amide], the melting point lay in the range of 120 to 121.5 °C. Also, the “HDAC Inhibition HeLa, percent” value with HDAC (HeLa cell extract) (@ 500 nM) is recorded as 78% @ 500 nM.

For the molecule `O=C(/C=C/c1cccs1)NCCCCCC(=O)NO` [PX117247, N-(5-Hydroxycarbamoyl-pentyl)-3-thiophen-2-yl-acrylamide], the melting point is 151 to 153 °C. Besides, the pIC50 in the data set on HeLa cells was 6.24. The pIC50 in the data set on HDAC (HeLa cell extract) (setting [1]) was 7.72.

As to `O=C(CCCCCCC(=O)NCC(c1ccccc1)c1ccccc1)NO` [PX117249, Octanedioic acid (2,2-diphenyl-ethyl)-amide hydroxyamide], the melting point lay within 123 to 123.5 °C. Besides, the pIC50 in the data set with HeLa cells was 4.96. In addition, the “HDAC Inhibition HeLa, percent” value in the data set on HDAC (HeLa cell extract) (@ 500 nM) is 64% @ 500 nM.

Regarding `O=C(CCCCCNC(=O)CCCCc1ccccc1)NO` [PX117261, 6-(5-Phenyl-pentanoylamino)-hexanoic acid hydroxyamide], the melting point was 97 to 98 °C. Further, the pIC50 in the data set with HeLa cells is 4.15. Also, in the data set on HDAC (HeLa cell extract) (@ 500 nM), the “HDAC Inhibition HeLa, percent” value is 51% @ 500 nM.

Turning to `O=C(CCCCCNC(=O)[C@H](Cc1c[nH]c2ccccc12)NC(=O)Cc1ccc2ccccc2c1)NO` [PX117406, N-Hydroxy-6-[((2S)-3-(1H-indol-3-yl)-2-{[2-(2-naphthyl)acetyl]-amino}propanoyl)amino]-hexanamide], the melting point was in the range of 112 to 114 °C. For the same molecule, in the data set on HeLa cells, the pIC50 is 5.16. In the data set on HDAC (HeLa cell extract) (@ 500 nM), the “HDAC Inhibition HeLa, percent” value was determined as 48% @ 500 nM.

On to `O=C(CCCCCNC(=O)[C@H](Cc1c[nH]c2ccccc12)NC(=O)CCCc1ccccc1)NO` [PX117407, N-hydroxy-6-({(2S)-3-(1H-indol-3-yl)-2-[(4-phenylbutanoyl)amino]-propanoyl}amino)-hexanamide], for which the melting point lay in the range of 106 to 108 °C. In the data set on HeLa cells, the pIC50 is 4.89. Besides, the “HDAC Inhibition HeLa, percent” value in the data set with HDAC (HeLa cell extract) (@ 500 nM) worked out at 40% @ 500 nM.

The molecule `O=C(CCCCCCC(=O)NC(c1ccccc1)c1ccccc1)NO` [PX117417, N^1-benzhydryl-N^8-hydroxyoctanediamide] displayed a melting point of 155 to 156.5 °C. Moreover, the “HDAC Inhibition HeLa, percent” value with HDAC (HeLa cell extract) (@ 500 nM) was 56% @ 500 nM.

As for `O=C(CCCCCCC(=O)NCc1ccccc1)NO` [PX117418, Octanedioic acid benzylamide hydroxyamide], the melting point fell in the range of 126 to 126.5 °C. Besides, the “HDAC Inhibition HeLa, percent” value in the data set on HDAC (HeLa cell extract) (@ 500 nM) is reported as 39% @ 500 nM.

For the molecule `O=C(CCCCCNC(=O)Cc1csc2ccccc12)NO` [PX117442, 6-(2-Benzothiophen-3-yl-acetylamino)-hexanoic acid hydroxyamide], the melting point was 113 to 115 °C. Also, the “HDAC Inhibition HeLa, percent” value with HDAC (HeLa cell extract) (@ 500 nM) is recorded as 31% @ 500 nM.

As to `CN(C)c1ccc(CC(=O)NCCCCCC(=O)NO)cc1` [PX117458, 6-[2-(4-Dimethylamino-phenyl)-acetylamino]-hexanoic acid hydroxyamide], the melting point lay in the range of 124 to 126 °C. Besides, in the data set with HDAC (HeLa cell extract) (@ 500 nM), the “HDAC Inhibition HeLa, percent” value came out at 9% @ 500 nM. The “percent HDAC inhibition at the stated concentration” value with HDAC (HeLa cell extract) (comparative tables, @ 500 nM) is listed as 9% @ 500 nM.

With `O=C(CCCCCCC(=O)NCc1cccc2ccccc12)NO` [PX117459, Octanedioic acid hydroxyamide (naphthalen-1-ylmethyl)-amide], the melting point fell in the range of 141 to 143 °C. Besides, in the data set with HDAC (HeLa cell extract) (@ 500 nM), the “HDAC Inhibition HeLa, percent” value stood at 63% @ 500 nM.
